In the supplement of paper PMC10627819:

What was measured:
Experiment in all cases: Bliss interaction score (quartile over a dose matrix) (fitness difference); higher = more antagonism (negative = synergy)
[1] = tested on: S. aureus Newman
Summary of the method: (§1)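 Fitness was defined as normalised growth: OD595 at the start of stationary phase divided by the plate's robust no-drug mean and capped at 1. Single-drug fitness was inferred from combination measurements. The Bliss score is observed fitness minus the product of the single-drug values, summarised by quartiles across technical, biological and donor/recipient replicates.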

[2] = tested on: S. pneumoniae D39V
Summary of the method: as §1

[3] = tested on: B. subtilis 168
Summary of the method: as §1

[4] = tested on: S. aureus DSM 20231
Summary of the method: as §1
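Note: first quartile when negative (synergy) and third quartile when positive (antagonism).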

| Structure (SMILES) | Bliss interaction score [1] | Bliss interaction score [2] | Bliss interaction score [3] | Bliss interaction score [4] | Bliss interaction score ([1]; main component drawn) | Bliss interaction score ([2]; main component drawn) | Bliss interaction score ([3]; main component drawn) | Bliss interaction score ([4]; main component drawn) |
| --- | --- | --- | --- | --- | --- | --- | --- | --- |
| O=C(O)[C@H]1/C(=C/CO)O[C@@H]2CC(=O)N21 [Clavulanic] + CC1(C)S[C@@H]2[C@H](NC(=O)Cc3ccccc3)C(=O)N2[C@H]1C(=O)O [PenicillinG] | -0.128 | 0.0529 | -0.351 | -0.147 | – | – | – | – |
| O=C(O)[C@H]1/C(=C/CO)O[C@@H]2CC(=O)N21 [Clavulanic] + CC1=C\[C@@H](O)CC(=O)Cc2nc(co2)C(=O)N2CCC=C2C(=O)O[C@H](C(C)C)[C@H](C)/C=C/C(=O)NC\C=C\1 [Virginiamycin M1] | -0.0599 | 0.0495 | 0.0376 | 0.0872 | – | – | – | – |
| O=C(O)[C@H]1/C(=C/CO)O[C@@H]2CC(=O)N21 [Clavulanic] + CC(=O)NC[C@H]1CN(c2ccc(N3CCOCC3)c(F)c2)C(=O)O1 [Linezolid] | 0.242 | -0.1 | 0.0747 | -0.196 | – | – | – | – |
| O=C(O)[C@H]1/C(=C/CO)O[C@@H]2CC(=O)N21 [Clavulanic] + CC(=O)O[C@H]1C[C@@]2(C)[C@@H](C[C@@H](O)[C@H]3[C@@]4(C)CC[C@@H](O)[C@@H](C)[C@@H]4CC[C@@]32C)/C1=C(\CCC=C(C)C)C(=O)O [Fusidic acid] | 0.209 | -0.0441 | -0.0604 | -0.265 | – | – | – | – |
| O=C(O)[C@H]1/C(=C/CO)O[C@@H]2CC(=O)N21 [Clavulanic] + CC(C1CCC(C(O1)OC2C(CC(C(C2O)OC3C(C(C(CO3)(C)O)NC)O)N)N)N)NC [Gentamicin] | – | – | – | – | 0.288 | 0.0396 | 0.105 | -0.273 |
| O=C(O)[C@H]1/C(=C/CO)O[C@@H]2CC(=O)N21 [Clavulanic] + CCC(C)C1C(=O)NC(=C)C(=O)NC(C(=O)NC(CSCC(C(=O)N1)NC(=O)/C(=C/C)/NC(=O)C(C(C)CC)N)C(=O)NC2C(SCC(NC(=O)CNC(=O)C3CCCN3C2=O)C(=O)NC(CCCCN)C(=O)NC4C(SCC(NC(=O)CNC(=O)C(NC(=O)C(NC(=O)C(NC(=O)CNC4=O)C)CC(C)C)CCSC)C(=O)NC(CC(=O)N)C(=O)NC(CCSC)C(=O)NC(CCCCN)C(=O)NC5C(SCC6C(=O)NC(C(=O)NC(CSC(C(C(=O)N6)NC(=O)C(NC5=O)C)C)C(=O)NC(CO)C(=O)NC(C(C)CC)C(=O)NC(CC7=CN=CN7)C(=O)NC(C(C)C)C(=O)NC(=C)C(=O)NC(CCCCN)C(=O)O)CC8=CN=CN8)C)C)C)CC(C)C [Nisin] | – | – | – | – | 0.255 | -0.0543 | -0.0543 | 0.105 |
| O=C(O)[C@H]1/C(=C/CO)O[C@@H]2CC(=O)N21 [Clavulanic] + CCCCCCCCCC(=O)N[C@@H]1[C@H]([C@@H]([C@H](O[C@H]1OC2=C3C=C4C=C2OC5=C(C=C(C=C5)[C@H]([C@H]6C(=O)N[C@@H](C7=C(C(=CC(=C7)O)OC8[C@H]([C@H]([C@@H]([C@H](O8)CO)O)O)O)C9=C(C=CC(=C9)[C@H](C(=O)N6)NC(=O)[C@@H]4NC(=O)[C@@H]1C2=CC(=CC(=C2)OC2=C(C=CC(=C2)[C@H](C(=O)N[C@H](CC2=CC(=C(O3)C=C2)Cl)C(=O)N1)N)O)O)O)C(=O)O)O[C@H]1[C@@H]([C@H]([C@@H]([C@H](O1)CO)O)O)NC(=O)C)Cl)CO)O)O [Teicoplanin] | – | – | – | – | -0.059 | -0.0601 | -0.178 | 0.119 |
| O=C(O)[C@H]1/C(=C/CO)O[C@@H]2CC(=O)N21 [Clavulanic] + CCC[C@@H]1C[C@@H](C(=O)N[C@@H]([C@H]2O[C@H](SC)[C@H](O)[C@@H](O)[C@H]2O)[C@@H](C)O)N(C)C1 [Lincomycin] | 0.132 | 0.0627 | -0.0568 | -0.194 | – | – | – | – |
| O=C(O)[C@H]1/C(=C/CO)O[C@@H]2CC(=O)N21 [Clavulanic] + CCC[C@@H]1C[C@@H](C(=O)N[C@@H]([C@H]2O[C@H](SC)[C@H](O)[C@@H](O)[C@H]2O)[C@H](C)Cl)N(C)C1 [Clindamycin] | 0.188 | -0.0802 | -0.0975 | -0.148 | – | – | – | – |
| O=C(O)[C@H]1/C(=C/CO)O[C@@H]2CC(=O)N21 [Clavulanic] + CCN(CC)CCOC(=O)c1ccc(N)cc1 [Procaine] | -0.0729 | 0.0863 | -0.0363 | 0.0977 | – | – | – | – |
| O=C(O)[C@H]1/C(=C/CO)O[C@@H]2CC(=O)N21 [Clavulanic] + CC[C@H]1OC(=O)[C@H](C)C(=O)[C@H](C)[C@@H](O[C@@H]2O[C@H](C)C[C@H](N(C)C)[C@H]2O)[C@](C)(OC)C[C@@H](C)C(=O)[C@H](C)[C@H]2N(CCCCn3cnc(-c4cccnc4)c3)C(=O)O[C@]12C [Telithromycin] | 0.122 | -0.0431 | 0.0437 | -0.0742 | – | – | – | – |
| O=C(O)[C@H]1/C(=C/CO)O[C@@H]2CC(=O)N21 [Clavulanic] + CC[C@H]1OC(=O)[C@H](C)[C@@H](O[C@H]2C[C@@](C)(OC)[C@@H](O)[C@H](C)O2)[C@H](C)[C@@H](O[C@@H]2O[C@H](C)C[C@H](N(C)C)[C@H]2O)[C@](C)(O)C[C@@H](C)C(=O)[C@H](C)[C@@H](O)[C@]1(C)O [Erythromycin] | 0.237 | -0.0371 | 0.0508 | -0.151 | – | – | – | – |
| O=C(O)[C@H]1/C(=C/CO)O[C@@H]2CC(=O)N21 [Clavulanic] + CN1C2=CC=CC=C2N=C3C1=CC=CC3=O [Pyocyanin] | 0.0849 | 0.0705 | 0.0338 | -0.0632 | – | – | – | – |
| O=C(O)[C@H]1/C(=C/CO)O[C@@H]2CC(=O)N21 [Clavulanic] + CN(C)C(=O)C(CCN1CCC(O)(c2ccc(Cl)cc2)CC1)(c1ccccc1)c1ccccc1 [Loperamide] | 0.209 | 0.0637 | 0.389 | -0.361 | – | – | – | – |
| O=C(O)[C@H]1/C(=C/CO)O[C@@H]2CC(=O)N21 [Clavulanic] + CN(C)[C@@H]1C(O)=C(C(N)=O)C(=O)[C@@]2(O)C(O)=C3C(=O)c4c(O)ccc(Cl)c4[C@@](C)(O)[C@H]3C[C@@H]12 [Clortetracycline] | 0.161 | -0.0427 | 0.0785 | -0.24 | – | – | – | – |
| O=C(O)[C@H]1/C(=C/CO)O[C@@H]2CC(=O)N21 [Clavulanic] + CN(C)c1cc(NC(=O)CNC(C)(C)C)c(O)c2c1C[C@H]1C[C@H]3[C@H](N(C)C)C(O)=C(C(N)=O)C(=O)[C@@]3(O)C(O)=C1C2=O [Tigecycline] | -0.0659 | 0.0386 | 0.0342 | 0.0703 | – | – | – | – |
